The structures appear in SMILES notation. Numbering of substitutions follows the chain as printed.

One assay deals with T1, TPα^T337A (Homo sapiens, UniProt P21731, T337A).
T1 construct: expressed in transfected cells
T1 sequence (P21731 1-343 T337A): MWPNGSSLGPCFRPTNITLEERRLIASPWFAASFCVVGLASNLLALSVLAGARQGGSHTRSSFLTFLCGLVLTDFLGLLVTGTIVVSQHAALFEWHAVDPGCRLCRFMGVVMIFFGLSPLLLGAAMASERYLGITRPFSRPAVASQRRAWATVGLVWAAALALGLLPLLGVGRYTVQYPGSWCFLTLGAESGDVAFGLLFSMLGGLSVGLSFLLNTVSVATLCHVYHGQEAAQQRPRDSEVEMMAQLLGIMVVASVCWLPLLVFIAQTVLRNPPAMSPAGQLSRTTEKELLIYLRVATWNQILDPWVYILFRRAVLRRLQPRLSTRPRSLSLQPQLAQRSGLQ
Put plainly: [3H]SQ29,548 radioligand binding, Scatchard analysis, HEK.TPα^T337A. As for the experimental part:
Cells were harvested by centrifugation at 500×g at 4 °C for 5 min and washed three times with ice-cold Ca^2+/Mg^2+-free phosphate-buffered saline (PBS). TP radioligand binding assays were carried out at 30 °C for 30 min in 100 μl reactions in the presence of 0–40 nM [^3H] […] Protein determinations were carried out using the Bradford assay.
Radioligand binding and Scatchard analysis data were analysed using GraphPad Prisim V4.0 programme (GraphPad Software Inc., San Diego CA, USA). Statistical analyses were carried out using the unpaired Student's t test using the Statworks Analysis Package. p-values ≤ 0.01 indicated statistically significant differences.

The target of another assay is T2, TP^Δ328 (Homo sapiens, UniProt P21731).
T2 construct: expressed in transfected cells
T2 sequence (P21731 1-328): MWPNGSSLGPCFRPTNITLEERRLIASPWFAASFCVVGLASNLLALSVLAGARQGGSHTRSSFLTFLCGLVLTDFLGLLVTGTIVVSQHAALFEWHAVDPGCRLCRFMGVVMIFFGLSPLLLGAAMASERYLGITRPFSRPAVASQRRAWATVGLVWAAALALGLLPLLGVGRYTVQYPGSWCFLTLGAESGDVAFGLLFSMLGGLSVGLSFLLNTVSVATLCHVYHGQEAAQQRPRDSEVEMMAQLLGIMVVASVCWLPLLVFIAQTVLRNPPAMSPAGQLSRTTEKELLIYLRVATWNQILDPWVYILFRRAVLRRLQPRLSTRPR
The assay is described as follows: Intracellular calcium mobilization, HEK.TP^Δ328 cells. The settings on record: for Δ[Ca2+]i, U46619-induced: HEK.TP^Δ328. The format is cell-based. Here is the method:
Measurement of intracellular calcium mobilization ([Ca^2+]i) in FURA2/AM preloaded HEK 293 cell lines (2 × 10^6 cells/dish), each transiently co-transfected with pADVA (10 μg), and pCMV:Gαq (25 μg), was carried out as previously described. To investigate the effect of GRK2/βARK1 on TP-mediated [Ca^2+]i mobilization, HEK.TPα or HEK.TPβ cells (2 × 10^6 cells/dish) were co-transfected with pADVA (10 μg), pCMV:Gαq (25 μg) along with pRK5:βARK1^495–689 (25 μg), encoding a dominant negative form of GRK2/βARK1[39]. Approximately 48 h post-transfection, cells were harvested by scraping, washed twice in ice-cold PBS and resuspended in HBSSHB (modified Ca^2+/Mg^2+-free Hank's buffered salt solution, containing […], pH 7.67, 0.1% bovine serum albumin (BSA)) buffer at 10^7 cells/ml and incubated in the dark with 5 μM FURA2/AM for 45 min at 37 °C. Cells were collected by centrifugation (900×g, 5 min), washed once in an equal volume of HBSSHB, and were finally resuspended in HBSSHB buffer at 10^7 cells/ml and kept at room temperature in the dark for 40 min. For each measurement of [Ca^2+]i mobilization, aliquots of cells were diluted to 0.825 × 10^6 cells/ml in HBSSHB, 1 mM CaCl2 and FURA2 fluorescence was recorded (2 ml aliquots of cells) at 37^ °C with gentle stirring with a Perkin Elmer-Cetus LS50-B spectrofluorometer at excitation wavelengths of 340 nm and 380 nm and emission wavelength of 510 nm, respectively.
Cells were stimulated with the TP agonist U46619 (1 μM) and changes in [Ca^2+]i mobilization were monitored as a function of time. To assess agonist-mediated homologous desensitization, cells (0.825 × 10^6 cells/ml; 2 ml per assay) were stimulated with 1 μM U46619 (Primary stimulation) or, as a control, with the vehicle for 4 min; thereafter, cells were collected by centrifugation (900×g, 5 min); were washed twice in 2 ml HBSSHB, 1 mM CaCl2; and finally resuspended in 2 ml HBSSHB,1 mM CaCl2 and were left to recover over various time intervals (ranging from 0 to 60 min); thereafter, cells re-stimulated with 1 μM U46619 (Secondary stimulation) and changes in [Ca^2+]i mobilization were monitored as a function of time. To assess the role of protein kinase (PK) A, PKC or PKG on U46619-mediated desensitization of TPα signalling, cells were pre-incubated with the PKA inhibitor H-89 (10 μM), the PKC inhibitor GF 109203X (50 nM) or the PKG inhibitor KT 5823 (50 nM), for 15 min and respective kinase inhibitors were maintained throughout the primary/secondary U46619-stimulations and during the washes.
The vehicle had no effect on U46619-mediated [Ca^2+]i mobilization. Calibration of the signal was performed in each sample by adding 0.2% Triton X-100 to obtain the maximal fluorescence ratio (Rmax) and then 1 mM EGTA to obtain the minimal fluorescence ratio (Rmin). The ratio of the fluorescence at 340 nm to that at 380 nm is a measure of [Ca^2+]i, which assumes a Kd of 225 nM Ca^2+ for FURA2/AM. The results presented in the figures are representative data from at least three or four independent experiments and are plotted as changes in Ca^2+i mobilized (Δ[Ca^2+]i (nM)) as a function of time (s) upon ligand stimulation. Changes in [Ca^2+]i mobilization were determined by measuring peak rises in [Ca^2+]i mobilized (Δ[Ca^2+]i) and were calculated as mean changes in Δ[Ca^2+]i ± S.E.M. (nM).

The next assay addresses T3, TPα^S340A (Homo sapiens, UniProt P21731, S340A).
T3 construct: expressed in transfected cells
T3 sequence (P21731 1-343 S340A): T1 sequence (P21731 1-343 T337A) with A337T, S340A
Put plainly: Intracellular calcium mobilization, HEK.TPα^S340A cells. The assay is classed as cell-based. As for the experimental part:
Measurement of intracellular calcium mobilization ([Ca^2+]i) in FURA2/AM preloaded HEK 293 cell lines (2 × 10^6 cells/dish), each transiently co-transfected with pADVA (10 μg), and pCMV:Gαq (25 μg), was carried out as previously described. To investigate the effect of GRK2/βARK1 on TP-mediated [Ca^2+]i mobilization, HEK.TPα or HEK.TPβ cells (2 × 10^6 cells/dish) were co-transfected with pADVA (10 μg), pCMV:Gαq (25 μg) along with pRK5:βARK1^495–689 (25 μg), encoding a dominant negative form of GRK2/βARK1[39]. […] For each measurement of [Ca^2+]i mobilization, aliquots of cells were diluted to 0.825 × 10^6 cells/ml in HBSSHB, 1 mM CaCl2 and FURA2 fluorescence was recorded (2 ml aliquots of cells) at 37^ °C with gentle stirring with a Perkin Elmer-Cetus LS50-B spectrofluorometer at excitation wavelengths of 340 nm and 380 nm and emission wavelength of 510 nm, respectively.
Cells were stimulated with the TP agonist U46619 (1 μM) and changes in [Ca^2+]i mobilization were monitored as a function of time. […]
The vehicle had no effect on U46619-mediated [Ca^2+]i mobilization. Calibration of the signal was performed in each sample by adding 0.2% Triton X-100 to obtain the maximal fluorescence ratio (Rmax) and then 1 mM EGTA to obtain the minimal fluorescence ratio (Rmin). […]
On the technique in general: Calcium flux is commonly read through the fluorescence of an indicator in the cells.

[1] abbreviates: secondary 1 μM U46619 at 15 min.

On to `O=C(O)CCC/C=C\C[C@@H]1[C@H](CNNC(=O)Nc2ccccc2)[C@H]2CC[C@@H]1O2` [SQ29,548], for which the “Bmax (pmol/mg protein ± S.E.M.)” value at TPα^T337A is reported as 4.23 ± 0.04 pmol/mg protein.

For `CCCCC[C@H](O)/C=C/[C@@H]1[C@@H](C/C=C\CCCC(=O)O)[C@H]2CO[C@@H]1C2` [U46619], the “Δ[Ca2+]i, U46619-induced” value on TP^Δ328 (primary stimulation, 1 μM U46619 4 min) was 180 ± 5.6 nM; at TP^Δ328 (setting [1]), 158 ± 3.8 nM; on TP^Δ328 (secondary 1 μM U46619 at 60 min), 178 ± 6.7 nM; on TPα^S340A (primary 1 μM U46619 4 min), 180 ± 6.1 nM; at TPα^S340A (setting [1]) it was 0 nM. The “secondary U46619 [Ca2+]i response relative to primary response” value on TP^Δ328 (TP^Δ328, restimulation at 15 min) is about 80%.
